{"source": "patent US7101900B2", "about": "“Benzyl amidoxime derivatives, intermediate products and method for their production and use as fungicides” (BASF Aktiengesellschaft, priority 1999, dated 2006)", "key": {"[1]": {"tested_on": "powdery mildew of wheat (Erysiphe graminis forma specialis tritici)", "assay": "Activity against mildew of wheat (protective spray test on wheat seedlings)", "format": "in vivo", "conditions": "wheat seedlings c.v. Kanzler, dusted with spores 24 hours after spray coating dried, visual, total leaf area, after 7 days, untreated 95", "protocol": "Activity Against Mildew of Wheat\nLeaves of wheat seedlings c.v. “Kanzler” which had been grown in pots were sprayed to run off point with an aqueous preparation of active compound which had been prepared from a stock solution comprising 10% of active compound, 63% of cyclohexanone and 27% of emulsifier, and, 24 hours after the spray coating had dried on, dusted with spores of powdery mildew of wheat (Erysiphe graminis forma specialis tritici). The test plants were then placed in a greenhouse at 20–24° C. and 60–90% relative atmospheric humidity. After 7 days, the extent of the mildew development was determined visually in percent infection of the total leaf area."}, "[2]": {"tested_on": "cucumber mildew (Sphaerotheca fuliginea)", "assay": "Protective activity against cucumber mildew (spray test on cucumber seedlings)", "format": "in vivo", "conditions": "cucumber seedlings c.v. Chinesische Schlange, inoculated 20 hours after spray coating dried, visual, total leaf area, after 20 days, untreated 90", "protocol": "Protective Activity Against Cucumber Mildew\nAt the two-leaf stage, leaves of cucumber seedlings c.v. “Chinesische Schlange” which had been grown in pots were sprayed to run off point with an aqueous preparation of active compound which had been prepared from a stock solution comprising 10% of active compound, 63% of cyclohexanone and 27% of emulsifier. 20 hours after the spray coating had dried on, the plants were inoculated with an aqueous spore suspension of cucumber mildew (Sphaerotheca fuliginea). The plants were then cultivated in a greenhouse at 20–24° C. and 60–80% relative atmospheric humidity for 20 days. The extent of the mildew development was then determined visually in % infection of the total leaf area."}}}
{"smiles": "O=C(Cc1ccccc1)NC(Cc1c(F)cccc1Cl)=NOCC1CC1", "note": "[No. 2, O-cyclopropylmethyl N-phenylacetyl-(2-chloro-6-fluorophenyl)-acetamidoxime]", "values": [{"measurement": "% infection of the leaves after application of an aqueous preparation comprising 16 ppm of active compound", "setting": "[1]", "value": 3, "unit": "%"}, {"measurement": "% infection of the leaves after application of an aqueous preparation comprising 63 ppm of active compound", "setting": "[2]", "value": 10, "unit": "%"}]}
{"smiles": "O=C(Cc1ccccc1)NC(Cc1c(Cl)cccc1Cl)=NOCC1CC1", "note": "[No. 1, O-cyclopropylmethyl N-phenylacetyl-(2,6-dichlorophenyl)-acetamidoxime]", "values": [{"measurement": "% infection of the leaves after application of an aqueous preparation comprising 16 ppm of active compound", "setting": "[1]", "value": 3, "unit": "%"}, {"measurement": "% infection of the leaves after application of an aqueous preparation comprising 63 ppm of active compound", "setting": "[2]", "value": 10, "unit": "%"}]}
